Experimental findings from ChEMBL document CHEMBL1201862, “PubChem BioAssay data set” (2004) are described below.

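Five concentrations, 48 hours, 96-well plates. At the GI50, growth is halved.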 The source made the active and inactive calls. Rule as the data show it: active = GI50 up to about 1.1 µM and inactive = higher.

Test systems include BT-549; RXF 393; OVCAR-3; EKVX; TK-10; HL-60; LOX IMVI; SF-539; MDA-N; SK-MEL-28; SW-620; SK-MEL-2; U-251; 786-0; SK-OV-3; OVCAR-8; SN12C; Hs-578T; CAKI-1; HOP-62.
Holding throughout (assay): growth of human tumour cells (NCI), 48 h

Regarding `CC1OC(OC2C(O)COC(OC3C(C)OC(OC4C(OC(=O)[C@]56CCC(C)(C)C[C@@H]5C5=CCC7[C@@]8(C)C[C@H](O)[C@H](OC9OC(CO)C(O)C(OC%10OC(CO)C(O)C(O)C%10O)C9O)[C@@](C)(CO)[C@@H]8CC[C@@]7(C)[C@]5(C)CC6)OCC(O)C4O)C(O)C3OC3OCC(O)C(O)C3O)C2O)C(O)C(O)C1O` (stereo not given in full), the GI50 in the test with BT-549 was 9.57 µM (inactive); in the test on RXF 393 it was 5.55 µM (inactive); in the test with OVCAR-3, 11.4 µM (inactive); in the test on EKVX, 7.05 µM (inactive); in the test with TK-10, 10 µM (inactive); in the test with HL-60, 3.72 µM (inactive). The GI50 with LOX IMVI is 13.2 µM (inactive); in the test on SF-539, 14.6 µM (inactive); in the test with MDA-N, 2.87 µM (inactive); in the test on SK-MEL-28 it was 2.27 µM (inactive); with SW-620, 6.35 µM (inactive); in the test on SK-MEL-2, 3.47 µM (inactive). For the same molecule, the GI50 is 5.62 µM (inactive) with U-251; 5.53 µM (inactive) in the test on 786-0; 14.8 µM (inactive) in the test with SK-OV-3; 13.1 µM (inactive) in the test with OVCAR-8; 2 µM (inactive) with SN12C; 15.2 µM (inactive) with Hs-578T. The GI50 in the test on CAKI-1 is 4.39 µM (inactive); in the test on HOP-62, 6.76 µM (inactive).
`CN(C)CCCNC(CC#N)CCC#N` (stereo not given): the GI50 in the test on BT-549, in the test with RXF 393, with OVCAR-3, with EKVX, in the test with TK-10 and in the test with HL-60 was > 10 µM (inactive) in each case. Moreover, the GI50 in the test with LOX IMVI, in the test with SF-539, with MDA-N, in the test on SK-MEL-28, in the test with SW-620 and in the test on SK-MEL-2 was > 10 µM (inactive) in each case. Also, the GI50 with U-251, with 786-0, with SK-OV-3, in the test on OVCAR-8, with SN12C and in the test with Hs-578T was > 10 µM (inactive) in each case. The GI50 with CAKI-1 and with HOP-62 was > 10 µM (inactive) throughout.
For the molecule `COc1ccc(/C=C/C(=O)CCN2CCN(CCC(=O)/C=C/c3ccc(OC)cc3)CC2)cc1`, the GI50 in the test with BT-549 was 18.6 µM (inactive); in the test with RXF 393, 4.25 µM (inactive); in the test with OVCAR-3, 11.4 µM (inactive); in the test with EKVX it was 14.5 µM (inactive); in the test with TK-10, 14.9 µM (inactive); with HL-60, 4.61 µM (inactive). Moreover, the GI50 with LOX IMVI is 3.49 µM (inactive); in the test on SF-539 it was 6.17 µM (inactive); in the test with MDA-N, 2.54 µM (inactive); in the test on SK-MEL-28, 13.6 µM (inactive); with SW-620, 4.1 µM (inactive); with SK-MEL-2, 19.4 µM (inactive). The GI50 in the test on U-251 was 12.1 µM (inactive); with 786-0, 3.4 µM (inactive); with SK-OV-3, 11.8 µM (inactive); in the test on OVCAR-8 it was 20.8 µM (inactive); in the test with SN12C it was 12.6 µM (inactive); in the test on Hs-578T it was 20 µM (inactive). Besides, the GI50 in the test on CAKI-1 was 13.5 µM (inactive); in the test with HOP-62, 20.6 µM (inactive).
Regarding `Cn1c(=O)cc(NNc2ccccc2)[nH]c1=O`, the GI50 was > 100 µM (inactive) in the test on BT-549; 18 µM (inactive) in the test with RXF 393; 16.7 µM (inactive) in the test on OVCAR-3; 36.1 µM (inactive) with EKVX; 30.3 µM (inactive) in the test with TK-10; 26.7 µM (inactive) in the test on HL-60. Further, the GI50 in the test with LOX IMVI was 14.9 µM (inactive); with SF-539, > 100 µM (inactive); in the test with MDA-N, > 100 µM (inactive); in the test on SK-MEL-28 it was 28.6 µM (inactive); in the test with SW-620 it was 17.5 µM (inactive); in the test on SK-MEL-2 it was 36 µM (inactive). Moreover, the GI50 was 17.8 µM (inactive) in the test with U-251; 16.2 µM (inactive) in the test with 786-0; > 100 µM (inactive) with SK-OV-3; 20.9 µM (inactive) with OVCAR-8; 61.5 µM (inactive) in the test on SN12C; > 100 µM (inactive) with Hs-578T. In addition, the GI50 with CAKI-1 was 15.6 µM (inactive); in the test with HOP-62, > 100 µM (inactive).
Regarding `C=C1C[C@@H](O)[C@@H](Br)C(C)(C)[C@]12CCC(C)(Cl)C(Br)C2` (stereo not given in full), the GI50 in the test on BT-549 is 35.5 µM (inactive); in the test with RXF 393 it was 28.6 µM (inactive); in the test on OVCAR-3 it was 15.7 µM (inactive); with EKVX, 4.35 µM (inactive); in the test with TK-10 it was 1.58 µM (inactive); with HL-60 it was 25.6 µM (inactive). Besides, the GI50 with LOX IMVI was 21.3 µM (inactive); in the test on SF-539, 16.8 µM (inactive); in the test with MDA-N, 25.5 µM (inactive); in the test with SK-MEL-28, 55.7 µM (inactive); in the test with SW-620, 39.9 µM (inactive); with SK-MEL-2, 15.1 µM (inactive). The GI50 in the test with U-251 was 24.4 µM (inactive); in the test with 786-0, 25.9 µM (inactive); in the test on SK-OV-3, 57.3 µM (inactive); in the test on OVCAR-8, 34.7 µM (inactive); in the test with SN12C it was 18.8 µM (inactive); with Hs-578T, 27.4 µM (inactive). Further, the GI50 is 34.8 µM (inactive) in the test on CAKI-1 and 19.1 µM (inactive) with HOP-62.
As to `C[C@H](CCC(=O)O)[C@H]1CC[C@@]2(C)[C@@H]3C(=O)C[C@H]4C(C)(C)[C@@H](O)CC[C@]4(C)[C@H]3C(=O)C[C@]12C`, the GI50 with BT-549 is > 100 µM (inactive); in the test on RXF 393, > 100 µM (inactive); with OVCAR-3 it was > 100 µM (inactive); in the test with EKVX it was > 100 µM (inactive); with TK-10 it was > 100 µM (inactive); in the test on HL-60 it was 25.1 µM (inactive). Moreover, the GI50 in the test on LOX IMVI, in the test with SF-539, in the test with MDA-N, in the test with SK-MEL-28, with SW-620 and with SK-MEL-2 was > 100 µM (inactive) each time. For the same molecule, the GI50 in the test with U-251 is > 100 µM (inactive); with 786-0, > 100 µM (inactive); with SK-OV-3, > 100 µM (inactive); in the test with OVCAR-8 it was > 100 µM (inactive); in the test with SN12C, > 100 µM (inactive); in the test on Hs-578T it was 41.8 µM (inactive). In addition, the GI50 with CAKI-1 and with HOP-62 was > 100 µM (inactive) in each case.
On to `CCCCCCCCCCCCCCCC(=O)Nc1ccn(C2CCC(COP(=O)(O)OCC3OC(n4cc(F)c(=O)[nH]c4=O)CC3OC(C)=O)O2)c(=O)n1` (stereo not given), for which the GI50 in the test on BT-549 was 2.39 µM (inactive); with RXF 393 it was 22.4 µM (inactive); in the test with OVCAR-3 it was 19.4 µM (inactive); with EKVX it was 28.8 µM (inactive); in the test with TK-10 it was 24.4 µM (inactive); with HL-60 it was 11.2 µM (inactive). Besides, the GI50 in the test with LOX IMVI was 7.1 µM (inactive); with SF-539 it was 1.03 µM (active); with MDA-N it was 19.6 µM (inactive); in the test on SK-MEL-28, 17.9 µM (inactive); in the test on SW-620, 16.9 µM (inactive); with SK-MEL-2, 23.1 µM (inactive). For the same molecule, the GI50 in the test on U-251 is 12.1 µM (inactive); in the test with 786-0, 5.14 µM (inactive); in the test with SK-OV-3, 29.2 µM (inactive); in the test with OVCAR-8 it was 10.6 µM (inactive); with SN12C, 13.1 µM (inactive); in the test on Hs-578T it was 29.2 µM (inactive). For the same molecule, the GI50 in the test with CAKI-1 was 4.44 µM (inactive); with HOP-62, 5.06 µM (inactive).
On to `CC/C=N\N1C(N)=C(C#N)C(C#N)(C#N)C1CC` (stereo not given), for which the GI50 in the test on BT-549 was > 100 µM (inactive); in the test with RXF 393, > 100 µM (inactive); with OVCAR-3, > 100 µM (inactive); in the test with EKVX, > 100 µM (inactive); in the test on TK-10, > 100 µM (inactive); with HL-60, 35.8 µM (inactive). Besides, the GI50 with LOX IMVI was 49 µM (inactive); in the test with SF-539, 26.2 µM (inactive); in the test on MDA-N, 53.5 µM (inactive); in the test with SK-MEL-28, 56.2 µM (inactive); in the test on SW-620 it was 61.7 µM (inactive); in the test on SK-MEL-2, > 100 µM (inactive). The GI50 in the test on U-251 was 58.6 µM (inactive); with 786-0, > 100 µM (inactive); in the test with SK-OV-3 it was > 100 µM (inactive); in the test on OVCAR-8 it was 44.9 µM (inactive); in the test with SN12C, > 100 µM (inactive); with Hs-578T, > 100 µM (inactive). Besides, the GI50 with CAKI-1 and in the test on HOP-62 was > 100 µM (inactive) each time.
